# US20240391940A1, “FUSED RING-CONTAINING COMPOUND, APPLICATION THEREOF, AND COMPOSITION CONTAINING SAME” (GenEros Biopharma Ltd., priority 2020, published 2024)
# Tests used:
# [1] = system: Apoe KO mouse atherosclerosis model; test: Atherosclerosis model (Apoe KO mice, high-fat diet): blood lipid tests TCHO, TG, LDL-C, HDL-C; assay type: in vivo, C57BL/6 Apoe KO mice; conditions: Apoe KO mice, high-fat diet; GEN1-284s 60 mpk QD oral, 8 weeks
# Protocol: (§1) Method: Apoe KO mice were tested for basal blood lipid levels and divided into a normal control group and a high-fat group. After 8 weeks of housing, the mice from the high-fat group were divided into 4 groups of about 8: a normal diet group (Chow), a high-fat diet model group (HFD), an Atorvastatin positive group (HFD+atorvastatin 5 mpk, QD), and a GEN1-284s group (284-60 mpk, QD). Oral administration was performed for 8 consecutive weeks, and the effect of the compound on the following indicators in Apoe KO mice was observed: 4 blood lipid tests (TC, TG, HDL-C and LDL-C), aortic plaque En-face staining, and pathological oil red staining of the cardiac outflow tract.
# (§2) Mice from the groups except for the normal diet control group (Chow) were fed with high-fat feed every day for […]. From week 9, each group was orally administered solvent or a corresponding test compound, and body weight data were recorded every day for 8 consecutive weeks. After the first 8 weeks' high-fat diet, blood samples were taken and centrifuged to separate serum, and the serum was tested for blood lipid levels (TCHO, TG, LDL-C and HDL-C). The mice were randomly grouped according to the TCHO results and body weight. During the subsequent 8 weeks of administration, blood lipid tests (TCHO, TG, LDL-C and HDL-C) were run once every 4 weeks.
# Mice were fasted overnight, and blood (150 μL) was collected via mandibular blood sampling or eye ball removal (for endpoint only) and left at room temperature for 2 h. The blood was centrifuged at 4° C. at 7000 rpm for 10 min, and serum was pipetted, quick-frozen in dry ice and then stored at −80° C. before analysis. The serum was tested for the biochemical indicators TCHO, TG, LDL-C and HDL-C using kits and a microplate reader.
# [2] = system: Apoe KO mouse atherosclerosis model; test: Atherosclerosis model: plaques in the cardiac (left ventricular) outflow tract; assay type: in vivo, C57BL/6 Apoe KO mice; conditions: Apoe KO mice, high-fat diet; GEN1-284s 60 mpk QD oral
# Protocol: as §1, §2
# Mouse heart samples were fixed overnight in 4% paraformaldehyde solution and dehydrated in sucrose solution. Then, the samples were embedded with OCT (Sakura, Japan) under a stereo microscope and made into 10 μm frozen sections. The sections were stained with oil red ORO and then subjected to routine pathological examinations. Images of the outflow tract were acquired under an optical microscope at 4× magnification, and high-quality morphological observations were carried out using an eyepiece with 20× magnification. The percentage of intimal lesions in the cardiac outflow tract was calculated. The detection criteria followed the criteria for histological classification of human atherosclerotic disease, which are described in detail below:
# The area of plaques in the left ventricular outflow tract was measured using a microscope, and the proportion of plaques in the left ventricular outflow tract was calculated; this value reflects the degree of stenosis in the cardiac outflow tract vessel.
compound,measurement,setting,value
"O=C(Cc1ccc2ncccc2c1)N1CCC(n2c(=O)n(COP(=O)([O-])[O-])c3cccc(C(F)(F)F)c32)CC1.[Na+].[Na+] [GEN1-284 salt, (2-Oxo-3-(1-(2-(quinolin-6-yl)acetyl)piperidin-4-yl)-4-(trifluoromethyl)-2,3-dihydro-1H-benzo[d]imidazol-1-yl)methyl disodium phosphate]","Effect on dyslipidemia (TCHO, TG, HDL-C and LDL-C)",[1],partially ameliorate dyslipidemia
same,Left ventricular outflow tract plaques,[2],a certain ameliorating effect on outflow tract plaques
